Results on 42 molecules are retold here after patent US20250304537A1 (Repare Therapeutics Inc., priority 2022, published 2025).

In one experiment the test system is PKMYT1 (CDK1 pThr14) in FUOV1 cells. The experiment is described as follows: PKMYT1 cell-based activity assay, CDK1 pThr14 AlphaLISA in FUOV1 cells. To be noted: 2 h, 2 h compound incubation, read-out: FUOV-1 CDK1 pThr14 IC50. How it is done:
To determine compound IC50 (PKMYT1 cell-based activity assay, CDK1 pThr14 AlphaLISA), FUOV1 cells were plated into a 96-well TC-treated culture plate at 50000 cells/well in a final volume of 100 μL of media. The plates were then allowed to equilibrate in a biological safety cabinet for 30 minutes before being placed in a humidified incubator at 37 C and 5% CO2 overnight. The next day, 2 μL of PKMYT1 inhibitors or DMSO were diluted in 400 μL of warmed culture media in a 96-well block using a Biomek FX liquid handler. Compounds were mixed in media and then 25 μL was dispensed into each well of the 96-well cell plate. Plates were centrifuged at 300 g for 10 seconds and then placed in the incubator for 2 hours. After the 2-hour incubation with compound, media was removed via aspiration using a multichannel pipette. 30 μL of 1× AlphaLISA lysis buffer (Perkin Elmer) supplemented with protease and phosphatase inhibitors as well as 1 mM PMSF, was added to each well. Plates were rotated at 500 g for 20 minutes to facilitate lysis. Plates were then sealed with aluminum foil and frozen at −80° C. for at least 1 hour. Lysates were thawed at 37° C. for 10 minutes, then 10 μL of each lysate was transferred in duplicate to a white 384-well assay plate. Antibody mixture was prepared in 1× AlphaLISA assay buffer (Perkin Elmer) containing antibodies (5 nM final concentration for rabbit pThr14-CDK1 from Abcam #ab58509 and mouse total CDK1 from ThermoFisher Scientific #33-1800). 5 μL of antibody mixture was added to each well of the assay plate. The assay plate was sealed and stored at 4° C. overnight. The next day, AlphaLISA bead mixture (Perkin Elmer) was prepared in 1× AlphaLISA assay buffer. Anti-rabbit IgG Acceptor (Perkin Elmer #AL104C) and anti-mouse IgG Donor beads (Perkin Elmer #AS104D) were prepared to a concentration of 80 μg/ml in assay buffer. 5 μL of bead mixture was added to each well of the assay plate (20 μg/ml final concentration for each bead). The plate was protected from light and incubated for 2 hours at room temperature. After a 2-hour incubation with beads, the plate was read using the Perkin Elmer EnVision Multimode plate reader with excitation at 680 nm and emission at 615 nm.
As for `Cc1ccc(F)c(Nc2ncccc2-c2nc(C(N)=O)c(N)c(-c3c(C)c(F)cc4[nH]ncc34)n2)n1` [Compound 749], the IC50 stood at 6 nM.

Regarding `Cc1ccc2[nH]ncc2c1-c1nc(-c2ccc(F)cc2Nc2ncccn2)nc(C(N)=O)c1N` [Compound 511], the IC50 came out at 25 nM.

`Cc1ccc2[nH]ncc2c1-c1nc(-c2cc(F)ccc2Nc2cccnn2)nc(C(N)=O)c1N` [Compound 489]: the IC50 stood at 22 nM.

For `Cc1ccnc(Nc2ncccc2-c2nc(C(N)=O)c(N)c(-c3c(C)ccc4[nH]ncc34)n2)n1` [Compound 565, 5-amino-6-(5-methyl-1H-indazol-4-yl)-2-(2-((4-methylpyrimidin-2-yl)amino)pyridin-3-yl)pyrimidine-4-carboxamide], the IC50 amounted to 71 nM.

For the molecule `COc1cccc(Nc2ncccc2-c2nc(C(N)=O)c(N)c(-c3c(C)ccc4[nH]ncc34)n2)c1` [Compound 656], the IC50 is 527 nM.

As to `Cc1ccc2[nH]ncc2c1-c1nc(-c2cccnc2NC2CCN(C)C(=O)C2)nc(C(N)=O)c1N` (stereo not drawn) [Compound 549], the half-maximal inhibitory concentration (IC50) is 1320 nM.

Turning to `COCC(COC)Nc1cc(F)c(F)cc1-c1nc(C(N)=O)c(N)c(-c2c(C)ccc3[nH]ncc23)n1` [Compound 508], the IC50 is 622 nM.

As for `Cc1ccc2[nH]ncc2c1-c1nc(-c2ccccc2Nc2ncc(F)cn2)nc(C(N)=O)c1N` [Compound 494], the IC50 worked out at 144 nM.

As to `Cc1cnc(C)c(Nc2ncccc2-c2nc(C(N)=O)c(N)c(-c3c(C)ccc4[nH]ncc34)n2)n1` [Compound 718], the IC50 amounted to 39 nM.

For the molecule `Cc1ccc2[nH]ncc2c1-c1nc(-c2ccc(Cl)nc2Nc2nccnc2Cl)nc(C(N)=O)c1N` [Compound 770], the 50% inhibitory concentration (IC50) was found to be 17 nM.

For the molecule `Cc1ccc2[nH]ncc2c1-c1nc(-c2cccnc2Nc2nccnc2Cl)nc(C(N)=O)c1N` [Compound 763], the IC50 was determined as 29 nM.

As to `Cc1ccc2[nH]ncc2c1-c1nc(-c2cccnc2NCC2COCCO2)nc(C(N)=O)c1N` (stereo not drawn) [Compound 642], the IC50 stood at 472 nM.

In the case of `Cc1ccc2[nH]ncc2c1-c1nc(-c2ccc(Cl)nc2Nc2ncccn2)nc(C(N)=O)c1N` [Compound 759], the IC50 is 33 nM.

As to `CCc1ccccc1-c1nc(C(N)=O)c(N)c(-c2c(C)ccc3[nH]ncc23)n1` [Compound 778], the IC50 is 1260 nM.

Turning to `Cc1ccc2[nH]ncc2c1-c1nc(-c2cccnc2NCC(F)(F)F)nc(C(N)=O)c1N` [Compound 518, 5-amino-6-(5-methyl-1H-indazol-4-yl)-2-(2-((2,2,2-trifluoroethyl)amino)pyridin-3-yl)pyrimidine-4-carboxamide], the IC50 worked out at 18 nM.

Consider `Cc1ccnnc1Nc1ncccc1-c1nc(C(N)=O)c(N)c(-c2c(C)ccc3[nH]ncc23)n1` [Compound 563], for which the IC50 is 38 nM.

`Cc1ccc2[nH]ncc2c1-c1nc(-c2cccnc2Nc2ccc(F)nc2F)nc(C(N)=O)c1N` [Compound 641]: the IC50 was found to be 392 nM.

With `Cc1ccc(C#N)nc1Nc1ncccc1-c1nc(C(N)=O)c(N)c(-c2c(C)ccc3[nH]ncc23)n1` [Compound 740], the IC50 is 7 nM.

In the case of `Cc1ccc2[nH]ncc2c1-c1nc(-c2cccc(F)c2Nc2ncccn2)nc(C(N)=O)c1N` [Compound 769], the IC50 came to 230 nM.

For `Cc1ccc2[nH]ncc2c1-c1nc(-c2cc(F)cnc2NC2CCOCC2)nc(C(N)=O)c1N` [Compound 686], the IC50 was determined as 10 nM.

Consider `Cc1ccc2[nH]ncc2c1-c1nc(-c2ccc(Cl)nc2N[C@H]2C[C@@](C)(O)C2)nc(C(N)=O)c1N` [Compound 772], for which the IC50 was found to be 113 nM.

As for `NC(=O)c1nc(-c2cc(F)ccc2Nc2ncc(F)cn2)nc(-c2c(Cl)ccc3[nH]ncc23)c1N` [Compound 554], the IC50 stood at 138 nM.

For the molecule `Cc1cnc(Nc2cc(F)ccc2-c2nc(C(N)=O)c(N)c(-c3c(C)ccc4[nH]ncc34)n2)nc1` [Compound 523], the IC50 is 269 nM.

Take `Cc1ccc2[nH]ncc2c1-c1nc(-c2cc(F)ccc2Nc2ncc(F)cn2)nc(C(N)=O)c1N` [Compound 492]: the IC50 worked out at 163 nM.

Turning to `Cc1ccc2[nH]ncc2c1-c1nc(-c2ccc(F)cc2Nc2cccc(F)c2)nc(C(N)=O)c1N` [Compound 663], the IC50 stood at 359 nM.

Consider `Cc1cnc(Cl)c(Nc2ncccc2-c2nc(C(N)=O)c(N)c(-c3c(C)ccc4[nH]ncc34)n2)n1` [Compound 744], for which the half-inhibitory concentration (IC50) turned out to be 8 nM.

In the case of `Cc1ccc2[nH]ncc2c1-c1nc(-c2cc(F)cnc2NCC(C)(C)C#N)nc(C(N)=O)c1N` [Compound 702], the IC50 worked out at 14 nM.

With `Cc1ccc2[nH]ncc2c1-c1nc(-c2ccc(F)cc2Nc2ncccc2F)nc(C(N)=O)c1N` [Compound 527], the IC50 came out at 11 nM.

The same experiment, now with this note: 2 h, 2 h incubation, read-out: FUOV-1 CDK1 pThr14 IC50.
Consider `Cc1ccc2[nH]ncc2c1-c1nc(-c2cccnc2Nc2nc(F)ccc2F)nc(C(N)=O)c1Cl` [Compound 314, 5-chloro-2-[2-[(3,6-difluoro-2-pyridyl)amino]-3-pyridyl]-6-(5-methyl-1H-indazol-4-yl)pyrimidine-4-carboxamide], for which the IC50 was found to be 1620 nM.

Regarding `COc1cc(-c2nc(C(N)=O)c(N)c(-c3c(C)ccc4[nH]ncc34)n2)ccn1` [Compound 135], the IC50 worked out at 1150 nM.

The same experiment, now with this note: 2 h, 2 hours with compound, read-out: FUOV-1 CDK1 pThr14 IC50.
On to `Cc1ccc2[nH]ncc2c1-c1nc(-c2cc(F)cnc2N[C@H]2COC[C@@H]2O)nc(C(N)=O)c1N` [Compound 813], for which the IC50 came to 123 nM.

Consider `Cc1ccc2[nH]ncc2c1-c1nc(-c2ccc(C(F)F)nc2Nc2ncccc2F)nc(C(N)=O)c1N` [Compound 931], for which the IC50 was found to be 14 nM.

With `Cc1ncc(F)c(Nc2nc(F)ccc2-c2nc(C(N)=O)c(N)c(-c3c(C)ccc4[nH]ncc34)n2)n1` [Compound 954, 5-amino-2-(6-fluoro-2-((5-fluoro-2-methylpyrimidin-4-yl)amino)pyridin-3-yl)-6-(5-methyl-1H-indazol-4-yl)pyrimidine-4-carboxamide], the concentration for half-maximal inhibition (IC50) stood at 11 nM.

In the case of `Cc1c(F)cc2[nH]ncc2c1-c1nc(-c2cc(F)cnc2N[C@H]2CCOC2)nc(C(N)=O)c1N` [Compound 847], the IC50 was determined as 22 nM.

As to `Cc1ccc2[nH]ncc2c1-c1nc(-c2ccc(F)nc2Nc2nc(C(F)F)ccc2F)nc(C(N)=O)c1N` [Compound 947], the IC50 came to 4 nM.

With `Cc1ccc2[nH]ncc2c1-c1nc(-c2cc(F)cnc2N[C@@H]2CCOC[C@H]2O)nc(C(N)=O)c1N` [Compound 799, 5-amino-2-(5-fluoro-2-(((3S,4R)-3-hydroxytetrahydro-2H-pyran-4-yl)amino)pyridin-3-yl)-6-(5-methyl-1H-indazol-4-yl)pyrimidine-4-carboxamide], the IC50 is greater than 10000 nM.

As to `NC(=O)c1nc(-c2ccc(C(F)F)nc2Nc2ncccc2F)nc(-c2c(F)ccc3[nH]ncc23)c1N` [Compound 970], the IC50 came out at 40 nM.

As to `NC(=O)c1nc(-c2cccnc2NC2CC2)nc(-c2c(Cl)cc(F)c3[nH]ncc23)c1N` [Compound 967], the IC50 came to 212 nM.

On to `Cc1ccc2[nH]ncc2c1-c1nc(-c2cccnc2Nc2ncccc2F)cc(C(N)=O)c1N` [Compound 846], for which the IC50 came to 12 nM.

As to `NC(=O)c1nc(-c2ccc(F)nc2Nc2ncccn2)nc(-c2c(Cl)ccc3[nH]ncc23)c1N` [Compound 923], the IC50 came to 68 nM.

On to `Cc1ccc2[nH]ncc2c1-c1nc(-c2cc(F)cnc2N[C@H]2C[C@@H]3CC[C@H]2O3)nc(C(N)=O)c1N` [Compound 899], for which the half-maximal inhibitory concentration (IC50) is 33 nM.

Still in this experiment, the particulars now being: 2 hours with compound, read-out: FUOV-1 CDK1 pThr14 IC50.
Consider `Cc1ccc2[nH]ncc2c1-c1nc(-c2cc(F)cnc2N[C@@H]2C[C@H]3CC[C@@H]2O3)nc(C(N)=O)c1N` [Compound 836], for which the IC50 was determined as 15 nM.
